Earlier results on 1 substance are cited in patent US20230338587A1, “METHOD OF TREATING PSMA-EXPRESSING CANCERS” (ADVANCED ACCELERATOR APPLICATIONS INTERNATIONAL SA, priority 2020, published 2023).

On to “XOMA 089: fully human monoclonal antibody that specifically binds and neutralizes TGF-beta 1 and 2 ligands”, for which, in the series with rodent TGF-β, the “cross-reactivity with rodent TGF-β” value is recorded as “cross-reacts”. In the series with cynomolgus monkey TGF-β, the “cross-reactivity with cynomolgus monkey TGF-β” value is “cross-reacts”.
